Converted amounts (≈) assume the structure as drawn. Like-named read-outs stand apart in the source and are kept apart here.
Experiments:
Experiment in all cases: In vitro antibacterial activity, microtitration dilution method (MIC)
Type in all cases: cell-based
[1] = system: Streptococcus pyogenes C-203; settings: C203; Streptococcus pyogenes C-203, microtitration dilution; read-out: Minimal Inhibitory Concentration MIC
Text: (§1) The compounds of the invention display antibacterial activity when tested by the microtitration dilution method as described in Heifetz, et al, Antimicr. Agents & Chemoth., 6, 124 (1974), which is incorporated herein by reference. By use of this method, the followed minimum inhibitory concentration values (MICs in μg/mL) were obtained for representative compounds of the invention.

[2] = system: Providencia rettgeri M 1771; settings: M1771; Providencia rettgeri M 1771, microtitration dilution; read-out: Minimal Inhibitory Concentration MIC
Text: as §1

[3] = system: Staphylococcus aureus H 228; settings: H228; Staphylococcus aureus H 228, microtitration dilution; read-out: Minimal Inhibitory Concentration MIC
Text: as §1

[4] = system: Enterobacter cloacae MA 2646
Text: as §1

Escherichia coli Vogel = settings: Escherichia coli Vogel, microtitration dilution; read-out: Minimal Inhibitory Concentration MIC
Text: as §1

[5] = system: Streptococcus pneumoniae SV-1; settings: SV1; Streptococcus pneumoniae SV-1, microtitration dilution; read-out: Minimal Inhibitory Concentration MIC
Text: (§2) Agents & Chemoth., 6, 124 (1974), which is incorporated herein by reference.

[6] = system: Pseudomonas aeruginosa UI-18
Text: as §2

[7] = system: Streptococcus faecalis MGH-2; settings: Enterococcus faecalis, MGH2; Streptococcus faecalis MGH-2, microtitration dilution; read-out: Minimal Inhibitory Concentration MIC
Text: as §2

[8] = system: Staphylococcus aureus UC-76; settings: UC76; Staphylococcus aureus UC-76, microtitration dilution; read-out: Minimal Inhibitory Concentration MIC
Text: as §2

[9] = system: Klebsiella pneumoniae MGH-2
Text: as §2

Proteus rettgeri M 1771 = settings: Providencia rettgeri
Text: as §2

[10] = MA2646, Enterobacter cloacae MA 2646, microtitration dilution, read-out: Minimal Inhibitory Concentration MIC
[11] = UI18, Pseudomonas aeruginosa UI-18, microtitration dilution, read-out: Minimal Inhibitory Concentration MIC
[12] = MGH2, Klebsiella pneumoniae MGH-2, microtitration dilution, read-out: Minimal Inhibitory Concentration MIC
[13] = Enterobacter cloacae, MA2646, read-out: Minimal Inhibitory Concentration MIC
[14] = Klebsiella pneumoniae, MGH2, read-out: Minimal Inhibitory Concentration MIC
[15] = Pseudomonas aeruginosa, UI18, read-out: Minimal Inhibitory Concentration MIC
[16] = M1771, Proteus rettgeri M 1771, microtitration dilution, read-out: Minimal Inhibitory Concentration MIC

| SMILES | MIC [1] [µg/mL] | MIC [2] [µg/mL] | MIC [3] [µg/mL] | MIC [4, 10] [µg/mL] | MIC (Escherichia coli Vogel) [µg/mL] | MIC [5] [µg/mL] | MIC [6, 11] [µg/mL] | MIC [7] [µg/mL] | MIC [8] [µg/mL] | MIC [9, 12] [µg/mL] | MIC [4, 13] [µg/mL] | MIC [9, 14] [µg/mL] | MIC [6, 15] [µg/mL] | MIC (Proteus rettgeri M 1771; [16]) [µg/mL] | MIC (Proteus rettgeri M 1771; M1771, read-out: Minimal Inhibitory Concentration MIC) [µg/mL] |
| --- | --- | --- | --- | --- | --- | --- | --- | --- | --- | --- | --- | --- | --- | --- | --- |
| Cc1c(F)c(N2CCNCC2)c(F)c2c1c(=O)c(C(=O)O)cn2C1CC1 [Ex. 1, 1-Cyclopropyl-6,8-difluoro-1,4-dihydro-5-methyl-4-oxo-7-(1-piperazinyl)-3-quinolinecarboxylic acid] | 0.05 (≈ 0.138 µM) | 0.05 (≈ 0.138 µM) | 0.025 (≈ 0.0688 µM) | 0.025 (≈ 0.0688 µM) | 0.025 (≈ 0.0688 µM) | 0.025 (≈ 0.0688 µM) | 0.2 (≈ 0.55 µM) | 0.05 (≈ 0.138 µM) | 0.025 (≈ 0.0688 µM) | 0.025 (≈ 0.0688 µM) |  |  |  |  |  |
| Cc1c(F)c(N2CCC(N)C2)c(F)c2c1c(=O)c(C(=O)O)cn2C1CC1 (stereo not drawn) [Ex. 2, 7-(3-Amino-1-pyrrolidinyl)-1-cyclopropyl-6,8-difluoro-1,4-dihydro-5-methyl-4-oxo-3-quinolinecarboxylic acid] | 0.013 (≈ 0.0358 µM) | 0.025 (≈ 0.0688 µM) | 0.013 (≈ 0.0358 µM) | 0.006 (≈ 0.0165 µM) | 0.006 (≈ 0.0165 µM) | 0.003 (≈ 0.00826 µM) | 0.4 (≈ 1.1 µM) | 0.025 (≈ 0.0688 µM) | 0.003 (≈ 0.00826 µM) | 0.013 (≈ 0.0358 µM) |  |  |  |  |  |
| CCNCC1CCN(c2c(F)c(C)c3c(=O)c(C(=O)O)cn(C4CC4)c3c2F)C1 (stereo not drawn) [Ex. 3, 1-Cyclopropyl-7-[3-[(ethylamino)methyl]-1-pyrrolidinyl]-6,8-difluoro-1,4-dihydro-5-methyl-4-oxo-3-quinolinecarboxylic acid] | 0.006 (≈ 0.0148 µM) | 0.2 (≈ 0.493 µM) | 0.013 (≈ 0.0321 µM) | 0.1 (≈ 0.247 µM) | 0.05 (≈ 0.123 µM) | 0.003 (≈ 0.0074 µM) | 0.8 (≈ 1.97 µM) | 0.025 (≈ 0.0617 µM) | 0.003 (≈ 0.0074 µM) | 0.1 (≈ 0.247 µM) |  |  |  |  |  |
| Cc1c(F)c(N2CCC(C)(CN)C2)c(F)c2c1c(=O)c(C(=O)O)cn2C1CC1 (stereo not drawn) [Ex. 4, 7-[3-(Aminomethyl)-3-methyl-1-pyrrolidinyl]-1-cyclopropyl-6,8-difluoro-1,4-dihydro-5-methyl-4-oxo-3-quinolinecarboxylic acid] | 0.003 (≈ 0.00766 µM) | 0.2 (≈ 0.511 µM) | 0.006 (≈ 0.0153 µM) |  | 0.05 (≈ 0.128 µM) | 0.003 (≈ 0.00766 µM) | 0.8 (≈ 2.04 µM) | 0.025 (≈ 0.0639 µM) | 0.003 (≈ 0.00766 µM) |  | 0.05 (≈ 0.128 µM) | 0.1 (≈ 0.255 µM) |  |  |  |
| Cc1c(F)c(N2CCNC(C)C2)c(F)c2c1c(=O)c(C(=O)O)cn2C1CC1 (stereo not drawn) [Ex. 5, 1-Cyclopropyl-6,8-difluoro-1,4-dihydro-5-methyl-7-[3-methyl-1-piperazinyl]-4-oxo-3-quinolinecarboxylic acid] | 0.006 (≈ 0.0159 µM) | 0.1 (≈ 0.265 µM) | 0.025 (≈ 0.0662 µM) | 0.025 (≈ 0.0662 µM) | 0.05 (≈ 0.132 µM) | 0.025 (≈ 0.0662 µM) |  | 0.1 (≈ 0.265 µM) | 0.013 (≈ 0.0344 µM) | 0.05 (≈ 0.132 µM) |  |  | 0.4 (≈ 1.06 µM) |  |  |
| Cc1c(F)c(N2CCNCC2)cc2c1c(=O)c(C(=O)O)cn2C1CC1 [Ex. 6, 1-Cyclopropyl-6-fluoro-1,4-dihydro-5-methyl-4-oxo-7-(1-piperazinyl)-3-quinolinecarboxylic acid] | 0.1 (≈ 0.29 µM) | 0.1 (≈ 0.29 µM) | 0.1 (≈ 0.29 µM) | 0.013 (≈ 0.0376 µM) | 0.013 (≈ 0.0376 µM) | 0.05 (≈ 0.145 µM) | 0.2 (≈ 0.579 µM) | 0.05 (≈ 0.145 µM) | 0.025 (≈ 0.0724 µM) | 0.05 (≈ 0.145 µM) |  |  |  |  |  |
| Cc1c(F)c(N2CCNCC2)nc2c1c(=O)c(C(=O)O)cn2C1CC1 [Ex. 19, 1-Cyclopropyl-6-fluoro-1,4-dihydro-5-methyl-4-oxo-7-(1-piperazinyl)-1,8-naphthyridine-3-carboxylic acid] | 0.4 (≈ 1.15 µM) |  | 0.2 (≈ 0.577 µM) | 0.025 (≈ 0.0722 µM) | 0.013 (≈ 0.0375 µM) | 0.1 (≈ 0.289 µM) |  | 0.2 (≈ 0.577 µM) | 0.1 (≈ 0.289 µM) | 0.05 (≈ 0.144 µM) |  |  | 0.4 (≈ 1.15 µM) | 0.2 (≈ 0.577 µM) |  |
| Cc1c(F)c(N2CCC(N)C2)nc2c1c(=O)c(C(=O)O)cn2-c1ccc(F)cc1F (stereo not drawn) [Ex. 22, 7-(3-Amino-1-pyrrolidinyl)-1-(2,4-difluorophenyl)-6-fluoro-1,4-dihydro-5-methyl-4-oxo-1,8-naphthyridine-3-carboxylic acid] | 0.05 (≈ 0.12 µM) |  | 0.05 (≈ 0.12 µM) |  | 0.05 (≈ 0.12 µM) | 0.05 (≈ 0.12 µM) | 0.2 (≈ 0.478 µM) | 0.1 (≈ 0.239 µM) | 0.013 (≈ 0.0311 µM) | 0.05 (≈ 0.12 µM) | 0.05 (≈ 0.12 µM) |  |  |  | 0.1 (≈ 0.239 µM) |
| Cc1c(F)c(N2CC[C@@H]([C@H](C)N)C2)nc2c1c(=O)c(C(=O)O)cn2-c1ccc(F)cc1F [Ex. 23, 3R, 1'S-7-[3-(1-Aminoethyl)-1-pyrrolidinyl]-1-(2,4-difluorophenyl)-6-fluoro-1,4-dihydro-5-methyl-4-oxo-1,8-naphthyridine carboxylic acid] | 0.003 (≈ 0.00672 µM) |  | 0.006 (≈ 0.0134 µM) | 0.2 (≈ 0.448 µM) | 0.1 (≈ 0.224 µM) | 0.003 (≈ 0.00672 µM) | 0.2 (≈ 0.448 µM) | 0.013 (≈ 0.0291 µM) | 0.003 (≈ 0.00672 µM) |  |  | 0.1 (≈ 0.224 µM) |  | 0.2 (≈ 0.448 µM) |  |

From patent US5585491A, “Antibacterial agents” (Otsuka Pharmaceutical Co., Ltd., priority 1995, dated 1996)
